In publication PMC4190408, “Acylation of Glucagon-Like Peptide-2: Interaction with Lipid Membranes and In Vitro Intestinal Permeability” (PLoS ONE, 2014):
Side chains are listed from the residue outwards. Peptide text beside a SMILES is read from it. * marks the point of attachment. Palmitoyl = CCCCCCCCCCCCCCCC(=O)*; Lauroyl = CCCCCCCCCCCC(=O)*; Octanoyl = CCCCCCCC(=O)*; βAla = NCCC(=O)O

Test system: Caco-2 cells
Test: Translocation across Caco-2 cell monolayers
Type: in vitro ADME, human
Conditions: for Caco-2 translocation relative to native GLP-2 (in words): Caco-2 monolayers
Description: Caco-2 cells (passage 40–65) were cultured routinely in DMEM with 10% (v/v) FBS, 1% (v/v) nonessential amino acids, 100 U penicillin, 0.1 mg/mL streptomycin and 2 mM L-glutamine. The Caco-2 cells were seeded at a density of [drawing 60] cells/well on 12 well Transwells plates and grown for 14–16 days in DMEM with media change every second day. The cell layer was confirmed to consist of a single monolayer of cells by fixing and staining the cell layer, and visualizing by fluorescence microscopy.
Before transport experiments, DMEM medium was changed to HBSS buffer (containing 10 mM HEPES and 0.1% (w/v) OVA; 0.4 mL apical side and 1 mL basolateral) and left to equilibrate for 60 minutes. Buffer was replaced apically by 0.4 mL test solution at time zero, and the plates were incubated at [drawing 61] and 5% [drawing 62] with gentle shaking. Test solutions contained 100 [drawing 63] peptide and 0.8 [drawing 64] [ [drawing 65] ]mannitol (a permeability marker). Basolateral samples of 200 [drawing 66] were taken every 15 minutes for 1 hour, and replaced by buffer. The apical test solution and basolateral samples were diluted and analyzed for peptide content with the luciferase assay and for [ [drawing 67] ]mannitol content in a scintillation counter (Packard TopCount), after mixing 1∶1 with scintillation fluid.
The integrity of cell monolayers before, during, and after experiments was verified by measuring the translocation of radioactively labelled mannitol and the transepithelial electrical resistance (TEER), using a Milicell ERS-2 epithelial volt-ohm meter (Millipore, USA). Mannitol translocation and TEER values were not affected by addition of peptide or analogues compared to buffer.
The Caco-2 translocation of peptide or mannitol over Caco-2 layers is expressed as the apparent permeability ( [drawing 72] ), given by: [drawing 73] (6) where [drawing 74] is the steady-state flux of peptide (pmol/s), [drawing 75] is the surface area of the cell monolayer (1.12 [drawing 76] ), and [drawing 77] is the initial sample concentration added to the cell layer.

[1] = apical to basolateral, 1 hour, no enhancer, 3 separate experiments each with 4 repeats

SMILES | Caco-2 translocation in the presence of SDS (in words) (Caco-2, apical to basolateral, SDS) | increase in peptide permeability with SDS compared to peptide alone (Caco-2, apical to basolateral, SDS (transcellular enhancer), 2 separate experiments each with 4 repeats) | Caco-2 translocation relative to native GLP-2 (in words) [1] | Caco-2 translocation with absorption enhancer, times the native peptide (Caco-2, apical to basolateral, in the presence of EGTA (paracellular) or SDS (transcellular), 2 separate experiments each with 4 repeats) | increase in Caco-2 translocation compared to native GLP-2 (factor) (Caco-2 monolayers 14-16 days, apical to basolateral, 100 (unit is a drawing) peptide, HBSS with 10 mM HEPES and 0.1% OVA, 1 hour, luciferase assay read-out, no enhancer, 3 separate experiments each with 4 repeats)
CCCCCCCCCCCCCCCC(=O)NCCC(=O)NCCCC[C@H](NC(=O)[C@H](CC(N)=O)NC(=O)[C@H](CC(=O)O)NC(=O)[C@H](CC(C)C)NC(=O)[C@@H](NC(=O)[C@@H](NC(=O)[C@H](CC(N)=O)NC(=O)[C@H](CCSC)NC(=O)[C@H](CCC(=O)O)NC(=O)[C@H](CC(=O)O)NC(=O)[C@H](CO)NC(=O)[C@H](Cc1ccccc1)NC(=O)[C@H](CO)NC(=O)CNC(=O)[C@H](CCC(=O)O)NC(=O)[C@H](C)NC(=O)[C@@H](N)Cc1c[nH]cn1)[C@@H](C)O)[C@@H](C)CC)C(=O)N[C@@H](C)C(=O)N[C@@H](C)C(=O)N[C@@H](CCCNC(=N)N)C(=O)N[C@@H](CC(=O)O)C(=O)N[C@@H](Cc1ccccc1)C(=O)N[C@H](C(=O)N[C@@H](CC(N)=O)C(=O)N[C@@H](Cc1c[nH]c2ccccc12)C(=O)N[C@@H](CC(C)C)C(=O)N[C@H](C(=O)N[C@@H](CCC(N)=O)C(=O)N[C@H](C(=O)N[C@@H](CCCNC(=N)N)C(=O)N[C@H](C(=O)N[C@H](C(=O)N[C@@H](CC(=O)O)C(=O)O)[C@@H](C)O)[C@@H](C)CC)[C@@H](C)O)[C@@H](C)CC)[C@@H](C)CC [c16] (H-HAEGSFSDEMNTILDNK([βAla-Palmitoyl])AARDFINWLIQTRITD-OH) | remains lower than for the c12 peptide | the increase is greater | decreases it slightly |  | 
CCCCCCCCCCCC(=O)NCCC(=O)NCCCC[C@H](NC(=O)[C@H](CC(N)=O)NC(=O)[C@H](CC(=O)O)NC(=O)[C@H](CC(C)C)NC(=O)[C@@H](NC(=O)[C@@H](NC(=O)[C@H](CC(N)=O)NC(=O)[C@H](CCSC)NC(=O)[C@H](CCC(=O)O)NC(=O)[C@H](CC(=O)O)NC(=O)[C@H](CO)NC(=O)[C@H](Cc1ccccc1)NC(=O)[C@H](CO)NC(=O)CNC(=O)[C@H](CCC(=O)O)NC(=O)[C@H](C)NC(=O)[C@@H](N)Cc1c[nH]cn1)[C@@H](C)O)[C@@H](C)CC)C(=O)N[C@@H](C)C(=O)N[C@@H](C)C(=O)N[C@@H](CCCNC(=N)N)C(=O)N[C@@H](CC(=O)O)C(=O)N[C@@H](Cc1ccccc1)C(=O)N[C@H](C(=O)N[C@@H](CC(N)=O)C(=O)N[C@@H](Cc1c[nH]c2ccccc12)C(=O)N[C@@H](CC(C)C)C(=O)N[C@H](C(=O)N[C@@H](CCC(N)=O)C(=O)N[C@H](C(=O)N[C@@H](CCCNC(=N)N)C(=O)N[C@H](C(=O)N[C@H](C(=O)N[C@@H](CC(=O)O)C(=O)O)[C@@H](C)O)[C@@H](C)CC)[C@@H](C)O)[C@@H](C)CC)[C@@H](C)CC [c12] (H-HAEGSFSDEMNTILDNK([βAla-Lauroyl])AARDFINWLIQTRITD-OH) |  |  | increase the translocation relative to native GLP-2 | approximately 1.5 | ~1.5
CCCCCCCC(=O)NCCC(=O)NCCCC[C@H](NC(=O)[C@H](CC(N)=O)NC(=O)[C@H](CC(=O)O)NC(=O)[C@H](CC(C)C)NC(=O)[C@@H](NC(=O)[C@@H](NC(=O)[C@H](CC(N)=O)NC(=O)[C@H](CCSC)NC(=O)[C@H](CCC(=O)O)NC(=O)[C@H](CC(=O)O)NC(=O)[C@H](CO)NC(=O)[C@H](Cc1ccccc1)NC(=O)[C@H](CO)NC(=O)CNC(=O)[C@H](CCC(=O)O)NC(=O)[C@H](C)NC(=O)[C@@H](N)Cc1c[nH]cn1)[C@@H](C)O)[C@@H](C)CC)C(=O)N[C@@H](C)C(=O)N[C@@H](C)C(=O)N[C@@H](CCCNC(=N)N)C(=O)N[C@@H](CC(=O)O)C(=O)N[C@@H](Cc1ccccc1)C(=O)N[C@H](C(=O)N[C@@H](CC(N)=O)C(=O)N[C@@H](Cc1c[nH]c2ccccc12)C(=O)N[C@@H](CC(C)C)C(=O)N[C@H](C(=O)N[C@@H](CCC(N)=O)C(=O)N[C@H](C(=O)N[C@@H](CCCNC(=N)N)C(=O)N[C@H](C(=O)N[C@H](C(=O)N[C@@H](CC(=O)O)C(=O)O)[C@@H](C)O)[C@@H](C)CC)[C@@H](C)O)[C@@H](C)CC)[C@@H](C)CC [c8] (H-HAEGSFSDEMNTILDNK([βAla-Octanoyl])AARDFINWLIQTRITD-OH) |  |  | increase the translocation relative to native GLP-2 |  | 
